Here are results for four compounds from US4963530A, “Renin inhibitor peptide compounds, a process for the preparation thereof and pharmaceutical composition comprising the same” (Fujisawa Pharmaceutical Company, Ltd., priority 1987, dated 1990).

Test [1] has as its target T1, endogenous renin in human plasma (Homo sapiens, UniProt P00797).
T1 construct: incubation (37° C.) of the endogenous renin and angiotensinogen in plasma at pH 6.0; from tissue; host or cells: pooled human plasma (EDTA) from male volunteers
T1 sequence (P00797 67-406): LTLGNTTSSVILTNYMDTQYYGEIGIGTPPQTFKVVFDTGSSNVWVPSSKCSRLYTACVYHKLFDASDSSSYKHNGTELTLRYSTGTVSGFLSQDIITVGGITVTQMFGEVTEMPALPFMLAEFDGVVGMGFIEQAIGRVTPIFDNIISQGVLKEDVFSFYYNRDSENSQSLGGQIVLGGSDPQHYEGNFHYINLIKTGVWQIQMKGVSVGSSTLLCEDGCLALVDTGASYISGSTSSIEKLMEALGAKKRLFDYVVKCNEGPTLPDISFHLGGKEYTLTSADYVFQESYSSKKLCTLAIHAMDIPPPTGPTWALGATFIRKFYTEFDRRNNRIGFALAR
Nature of the test: Test 1: inhibition of human plasma renin activity (Ang I formation, RIA). Type of test: biochemical. The note with it: human plasma pool, pH 6.0, 37° C., 90 minutes incubation, Probit method; read-out: IC50 (concentration that inhibited plasma renin activity by 50%). The procedure: Human plasma was collected from male volunteers pretreated with no drugs and used as a pool. Disodium salt of ethylenediaminetetraacetic acid (EDTA) was used as the anticoagulant. Plasma renin activity was measured as the rate of angiotensin I (Ang I) formation after incubation (37° C.) of the endogenous renin and angiotensinogen in plasma at pH 6.0. The incubation mixture contained 250 μl of plasma, 5 μl of (phenylmethyl)sulfonyl fluoride, 30 μl of buffer (sodium, potassium-phosphate, pH 6.0), and 15 μl of an appropriate concentration of test compound in 50% ethyl alcohol-water vehicle. The Ang I formed after 90 minutes of incubation was measured by radioimmunoassay (RIA) which was carried out with a commercial kit, RENCTK 100 (manufactured by Commissariat A L'energie Atomique). Samples were incubated in duplicate and each tube was measured in duplicate in the RIA. Percentage inhibition of plasma renin activity was calculated by comparing the amount of Ang I produced with and without a test compound. The concentration of test compound that inhibited plasma renin activity by 50% ) (IC50) was determined by Probit method.

Test [2] is described as follows: Test 2: hypotensive effect (mean arterial blood pressure) in sodium-depleted conscious cynomolgus monkeys, oral. It counts as in vivo, cynomolgus monkeys (Macaca fascicularis). The note with it: 32 mg/kg po, sodium-depleted (furosemide) conscious cynomolgus monkeys, MAP measured 0-6 hours. The procedure:
(§1) Male or female cynomolgus monkeys (Macaca fascicularis) weighing about 2.5-3.5 kg were used. Sodium depletion was achieved by administering furosemide, 15 mg/kg subcutaneously one day before and then 10 mg/kg intravenously 30 minutes before the administration of the test compound.
(§2) Test compounds were dissolved in diluted equimolar hydrochloric acid (pH 5-6) and orally administered to conscious and trained monkeys placed in restraining chairs with pneumatic cuff positioned around the arm for oscillometric measurement of mean arterial blood pressure (MAP) (Model BP-203 NPJ, manufactured by Nippon Colin).
The MAP was measured at 0 (predosing base line), 0.5, 1, 2, 3, 4 and 6 hours after administration of the test compound. The maximum hypotensive effect was calculated as the maximum percentage fall of MAP from the pretreatment value.

Test [3] addresses T2, plasma renin activity (PRA) (Macaca fascicularis, UniProt Q6DLS0).
T2 construct: plasmas were obtained for determination of plasma renin activity (PRA); from tissue; host or cells: plasma of sodium-depleted cynomolgus monkeys, collected after oral dosing
T2 sequence (Q6DLS0 67-406): T1 sequence (P00797 67-406) with T2A, I148L, S169A
Nature of the test: Test 2: inhibition of plasma renin activity (PRA) in sodium-depleted cynomolgus monkeys after oral dosing. Type of test: in vivo, cynomolgus monkeys (Macaca fascicularis). The settings on record: cynomolgus monkey; 32 mg/kg po, sodium-depleted (furosemide) cynomolgus monkeys, plasma collected 0-6 hours after dosing; read-out: Maximum inhibition of PRA. The procedure: as §1, §2
Blood samples were collected at 0, 0.5, 1, 2, 4 and 6 hours after dosing from the antecubital vein of the monkey into disodium salt of EDTA coated tubes, centrifuged for 10 min (3000 rpm, 4° C.) and plasmas were obtained for determination of plasma renin activity (PRA). PRA was measured as the rate of Ang I formation with the same principle as illustrated in Test 1. 100 μl of sample plasma was mixed with 100 μl of the solution of angiotensinase inhibitors (3 mM 8-hydroxyquinoline sulfate and 5 mM 2,3-dimercaptopropanol , SB-REN-1, SORIN BIOMEDICA, Italy). Half (100 μl) of the mixture was incubated at 37° C. for one hour and Ang I formed was determined by a commercial RIA kit (DINABOTT). […] Percentage inhibition of PRA was calculated by the following formula: [formula] […]

Positions count from the first letter of the chain named.

As to `CC(C)CC[C@H](O)[C@H](CC1CCCCC1)NC(=O)[C@H](Cc1c[nH]cn1)NC(=O)[C@H](Cc1ccccc1)NC(=O)N1CCOCC1` [Test Compound (a), 2(S)-(N-Morpholinocarbonyl-L-phenylalanyl-L-histidyl)amino-1-cyclohexyl-3(S)-hydroxy-6-methylheptane], in test [1], the IC50 was 61 nM.

For `CC(C)CC[C@H](O)[C@H](CC1CCCCC1)NC(=O)[C@H](Cc1c[nH]cn1)N(C)C(=O)[C@H](Cc1ccccc1)NC(=O)N1CCOCC1` [Test Compound (b), 2(S)-(N-Morpholinocarbonyl-L-phenylalanyl-N^α -methyl-L-histidyl)amino-1-cyclohexyl-3(S)-hydroxy-6-methylheptane], the IC50 in test [1] was 21 nM. Also, the “Maximum hypotensive effect (maximum percentage fall of MAP from pretreatment value)” value in test [2] amounted to 25%. In test [3], the inhibition at 32 mg/kg was found to be 96%.

`CC(C)CC[C@H](O)[C@H](CC1CCCCC1)NC(=O)[C@H](Cc1c[nH]cn1)N(C)C(=O)[C@H](Cc1ccccc1)NC(=O)N1CCSCC1` [Test Compound (c), 2(S)-(N-Thiomorpholinocarbonyl-L-phenylalanyl-N^α -methyl-L-histidyl)amino-1-cyclohexyl-3(S)-hydroxy-6-methylheptane]: the IC50 in test [1] was determined as 24 nM.

As to `CC(C)CC[C@H](O)[C@H](CC1CCCCC1)NC(=O)[C@H](Cc1c[nH]cn1)N(C)C(=O)[C@H](Cc1ccccc1)NC(=O)N1CCc2ccccc2C1` [Test Compound (d), 2(S)-[N-(1,2,3,4-Tetrahydroisoquinolin-2-ylcarbonyl)-L-phenylalanyl-N^α -methyl-L-histidyl]amino-1-cyclohexyl-3(S)-hydroxy-6-methylheptane], in test [1], the IC50 is 60 nM.
